Source: PMC3145970, “Specific CLK Inhibitors from a Novel Chemotype for Regulation of Alternative Splicing” (Chemistry & Biology, 2011)
Like-named read-outs stand apart in the source and are kept apart here.

Experiments:
Assay in all cases: Thermal stability shift assay
Type in all cases: binding
[1] = target: T1, MAP3K5 (Homo sapiens, UniProt Q99683); conditions: read-out: Tm shift MAP3K5
T1 construct: purchased in-house (SGC Oxford thermal shift panel)
T1 sequence (Q99683 1-1374): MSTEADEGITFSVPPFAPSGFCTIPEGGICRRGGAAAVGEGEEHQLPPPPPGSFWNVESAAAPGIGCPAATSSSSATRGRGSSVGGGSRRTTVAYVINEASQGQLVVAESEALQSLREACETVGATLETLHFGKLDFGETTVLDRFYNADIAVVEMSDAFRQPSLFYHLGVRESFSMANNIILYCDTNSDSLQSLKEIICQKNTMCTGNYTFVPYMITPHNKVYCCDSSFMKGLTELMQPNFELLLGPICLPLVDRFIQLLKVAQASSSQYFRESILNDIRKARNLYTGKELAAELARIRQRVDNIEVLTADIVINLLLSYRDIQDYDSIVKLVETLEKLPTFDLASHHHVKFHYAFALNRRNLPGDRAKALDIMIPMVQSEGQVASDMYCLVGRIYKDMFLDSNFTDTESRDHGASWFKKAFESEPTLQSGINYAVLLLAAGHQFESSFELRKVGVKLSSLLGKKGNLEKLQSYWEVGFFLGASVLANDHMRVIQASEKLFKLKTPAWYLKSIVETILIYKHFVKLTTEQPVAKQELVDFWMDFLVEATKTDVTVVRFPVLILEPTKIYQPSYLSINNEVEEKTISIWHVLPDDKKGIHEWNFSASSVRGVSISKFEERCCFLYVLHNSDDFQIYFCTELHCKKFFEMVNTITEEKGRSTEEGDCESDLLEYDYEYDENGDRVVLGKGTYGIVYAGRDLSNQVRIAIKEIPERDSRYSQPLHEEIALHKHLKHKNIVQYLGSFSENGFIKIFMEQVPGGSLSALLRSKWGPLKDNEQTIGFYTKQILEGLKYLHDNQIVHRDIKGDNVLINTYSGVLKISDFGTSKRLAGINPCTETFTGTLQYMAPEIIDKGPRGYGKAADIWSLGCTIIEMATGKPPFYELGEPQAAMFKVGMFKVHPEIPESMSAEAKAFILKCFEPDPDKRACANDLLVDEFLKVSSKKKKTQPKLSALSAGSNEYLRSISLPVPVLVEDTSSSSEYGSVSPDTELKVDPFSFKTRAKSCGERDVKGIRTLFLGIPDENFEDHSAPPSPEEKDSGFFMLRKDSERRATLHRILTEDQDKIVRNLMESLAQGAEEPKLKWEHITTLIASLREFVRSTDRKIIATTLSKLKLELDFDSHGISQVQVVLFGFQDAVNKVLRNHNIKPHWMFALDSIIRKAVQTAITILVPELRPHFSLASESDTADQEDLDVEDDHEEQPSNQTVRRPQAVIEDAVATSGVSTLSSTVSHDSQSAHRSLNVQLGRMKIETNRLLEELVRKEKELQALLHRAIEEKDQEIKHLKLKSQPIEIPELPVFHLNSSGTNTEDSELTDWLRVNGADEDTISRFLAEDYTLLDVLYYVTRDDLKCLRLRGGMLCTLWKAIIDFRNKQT
In short: (§1)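 Each value reflects thermal unfolding of 2 μM protein with 10 μM inhibitor, detected by SyproOrange (1:1000 dilution) fluorescence in 10 mM HEPES pH 7.5, 500 mM NaCl.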

[2] = target: T2, NDR2 (Homo sapiens, UniProt Q9Y2H1); conditions: read-out: Tm shift NDR2
T2 construct: purchased in-house (SGC Oxford thermal shift panel)
In short: as §1

[3] = target: T3, PLK4 (Homo sapiens, UniProt O00444); conditions: read-out: Tm shift PLK4
T3 sequence (O00444 1-970): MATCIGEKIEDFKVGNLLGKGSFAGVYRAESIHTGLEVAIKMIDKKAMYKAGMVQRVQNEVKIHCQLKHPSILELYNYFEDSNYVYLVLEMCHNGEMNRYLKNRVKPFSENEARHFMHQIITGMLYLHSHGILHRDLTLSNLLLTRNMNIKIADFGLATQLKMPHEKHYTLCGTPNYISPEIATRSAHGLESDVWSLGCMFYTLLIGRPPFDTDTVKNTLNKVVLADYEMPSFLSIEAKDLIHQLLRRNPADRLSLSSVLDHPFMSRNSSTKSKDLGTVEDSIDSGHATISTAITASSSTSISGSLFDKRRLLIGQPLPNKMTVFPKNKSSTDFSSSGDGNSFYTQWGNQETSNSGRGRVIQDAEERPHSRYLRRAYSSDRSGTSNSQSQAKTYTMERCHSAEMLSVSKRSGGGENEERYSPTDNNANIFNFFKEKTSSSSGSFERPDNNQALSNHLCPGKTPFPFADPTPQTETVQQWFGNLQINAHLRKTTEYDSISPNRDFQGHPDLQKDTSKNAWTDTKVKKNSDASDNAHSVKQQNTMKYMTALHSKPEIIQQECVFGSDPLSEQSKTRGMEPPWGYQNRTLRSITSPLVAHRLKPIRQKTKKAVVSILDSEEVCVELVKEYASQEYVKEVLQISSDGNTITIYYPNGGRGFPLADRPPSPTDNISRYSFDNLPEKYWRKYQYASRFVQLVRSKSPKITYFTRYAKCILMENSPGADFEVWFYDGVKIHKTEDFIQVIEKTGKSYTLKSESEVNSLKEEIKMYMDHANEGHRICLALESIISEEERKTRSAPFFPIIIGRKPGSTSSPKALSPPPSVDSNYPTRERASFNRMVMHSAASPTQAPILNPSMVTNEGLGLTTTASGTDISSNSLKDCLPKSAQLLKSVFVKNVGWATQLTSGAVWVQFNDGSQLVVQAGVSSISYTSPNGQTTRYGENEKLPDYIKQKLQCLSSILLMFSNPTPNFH
In short: as §1

T2 sequence (Q9Y2H1 whole entry): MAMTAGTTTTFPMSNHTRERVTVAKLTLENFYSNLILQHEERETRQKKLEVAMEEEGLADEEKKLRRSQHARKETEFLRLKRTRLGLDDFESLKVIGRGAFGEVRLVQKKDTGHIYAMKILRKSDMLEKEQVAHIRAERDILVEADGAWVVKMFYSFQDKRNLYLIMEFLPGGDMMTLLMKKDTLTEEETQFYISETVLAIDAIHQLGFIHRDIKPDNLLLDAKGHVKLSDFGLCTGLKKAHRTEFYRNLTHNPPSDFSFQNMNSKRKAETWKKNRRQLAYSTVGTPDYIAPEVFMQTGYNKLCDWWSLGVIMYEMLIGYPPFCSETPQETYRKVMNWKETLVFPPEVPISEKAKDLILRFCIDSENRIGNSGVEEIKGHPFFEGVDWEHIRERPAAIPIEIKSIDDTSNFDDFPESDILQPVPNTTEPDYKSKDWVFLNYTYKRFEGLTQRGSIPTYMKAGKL

Compound | ΔTm at 10 µM [1] [°C] | ΔTm at 10 µM [2] [°C] | ΔTm at 10 µM [3] [°C] | ΔTm at 10 µM ([1]; inhibitor 10 μM) [°C] | ΔTm at 10 µM ([2]; inhibitor 10 μM) [°C] | ΔTm at 10 µM ([3]; inhibitor 10 μM) [°C]
CCOC(=O)c1c(/C(C#N)=C\N)c2ccc(Cl)c(Cl)c2n1C [KH-CB19, (E)-Ethyl 3-(2-Amino-1-Cyanovinyl)-6,7-Dichloro-1-Methyl-1H-Indole-2-Carboxylate] | 0.8 | -0.2 | 0.7 | – | – | –
CCOC(=O)c1c(C(C#N)=CN)c2ccc(Cl)c(Cl)c2n1C (mixture of isomers) [KH-CB20, (E/Z)-Ethyl 3-(2-Amino-1-Cyanovinyl)-6,7-Dichloro-1-Methyl-1H-Indole-2-Carboxylate] | 0.5 | -0.3 | 0.2 | – | – | –
NC1=NC(=O)/C(=C2\CCNC(=O)c3[nH]c(Br)cc32)N1 [Hymenialdisine, hymenialdisine, reference compound] | – | – | – | 8.7 | 0.9 | 3
CCOC(=O)c1c(C(C#N)=CN(C)C)c2ccc(Cl)c(Cl)c2n1C (mixture of isomers) [compound 2, (E/Z)-Ethyl 6,7-Dichloro-3-[1-Cyano-2-(Dimethylamino)Vinyl]-1-Methyl-1H-Indole-2-Carboxylate] | – | – | – | 0.2 | -0.1 | 0.2
Cn1c2c(Cl)c(Cl)ccc2c2c(C#N)c[nH]c(=O)c21 [compound 3, 7,8-Dichloro-9-Methyl-1-Oxo-2,9-Dihydro-1H-Pyrido[3,4-b]Indole-4-Carbonitrile] | – | – | – | 0.8 | 0 | 0.5
